Drawing on patent publication US20230416227A1, “PLASMA KALLIKREIN INHIBITORS” (Merck Sharp & Dohme LLC, priority 2020, published 2023), this text covers IC50 for 19 compounds.

Broadly, the IC50 is the concentration at which inhibition is half-maximal.

The target in one experiment is human factor XIa (Homo sapiens, UniProt P03951). Briefly: Factor XIa Assay. As to conditions: human factor XIa 0.04 nM, substrate GPR-AFC, 30 min pre-incubation at 25° C., pH 7.4; read-out: FXIa IC50. It counts as biochemical.
human factor XIa, sequence (P03951 388-625 limits assumed): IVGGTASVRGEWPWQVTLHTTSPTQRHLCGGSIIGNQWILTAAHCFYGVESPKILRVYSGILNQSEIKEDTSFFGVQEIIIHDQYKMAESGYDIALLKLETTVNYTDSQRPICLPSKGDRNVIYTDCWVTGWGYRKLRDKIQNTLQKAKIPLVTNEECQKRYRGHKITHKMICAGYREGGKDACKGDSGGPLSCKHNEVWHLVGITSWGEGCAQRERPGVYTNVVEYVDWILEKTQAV
human factor XIa, sequence (P03951 19-387 partner limits assumed): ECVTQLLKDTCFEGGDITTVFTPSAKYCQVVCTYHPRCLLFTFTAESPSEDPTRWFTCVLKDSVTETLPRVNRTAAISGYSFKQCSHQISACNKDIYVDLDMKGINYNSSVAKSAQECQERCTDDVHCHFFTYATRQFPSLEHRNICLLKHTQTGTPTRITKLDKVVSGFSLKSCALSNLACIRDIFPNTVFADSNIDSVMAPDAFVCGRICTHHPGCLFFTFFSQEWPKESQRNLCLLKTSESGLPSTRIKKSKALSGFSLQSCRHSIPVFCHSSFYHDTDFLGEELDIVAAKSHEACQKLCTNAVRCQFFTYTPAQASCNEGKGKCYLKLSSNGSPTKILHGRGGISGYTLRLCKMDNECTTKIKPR
The next experiment concerns the target T1, Human plasma kallikrein (Homo sapiens, UniProt P03952).
T1 construct: yields a heavy chain (371 amino acids) and a light chain (248 amino acids); purchased Enzyme Research Laboratories
Briefly: Plasma Kallikrein Assay. It counts as biochemical. As to conditions: purified Human plasma kallikrein 0.5 nM, substrate Acetyl-K-P-R-AFC, pH 7.4.

T1 sequence (P03952 391-638 limits assumed): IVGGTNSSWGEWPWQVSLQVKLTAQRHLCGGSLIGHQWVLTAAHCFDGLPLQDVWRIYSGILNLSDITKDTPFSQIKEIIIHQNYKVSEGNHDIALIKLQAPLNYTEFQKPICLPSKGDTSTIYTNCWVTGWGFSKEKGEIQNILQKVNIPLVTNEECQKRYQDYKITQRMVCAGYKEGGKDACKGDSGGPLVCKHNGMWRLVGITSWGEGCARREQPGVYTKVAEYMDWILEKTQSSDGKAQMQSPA
T1 sequence (P03952 20-390 partner limits assumed): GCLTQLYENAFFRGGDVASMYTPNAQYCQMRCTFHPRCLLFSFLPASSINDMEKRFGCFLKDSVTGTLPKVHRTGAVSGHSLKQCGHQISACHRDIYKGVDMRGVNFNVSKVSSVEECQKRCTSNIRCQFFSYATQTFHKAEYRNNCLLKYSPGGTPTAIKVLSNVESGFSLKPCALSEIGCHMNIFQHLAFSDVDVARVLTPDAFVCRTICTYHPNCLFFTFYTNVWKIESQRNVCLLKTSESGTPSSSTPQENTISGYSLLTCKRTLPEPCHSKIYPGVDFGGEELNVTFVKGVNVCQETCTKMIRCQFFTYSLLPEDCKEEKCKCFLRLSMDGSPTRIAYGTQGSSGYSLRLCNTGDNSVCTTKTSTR

Take `O=C(Nc1cnn(Cc2cnc(N3CCC3)nc2)c1)c1nc(-c2c(C(F)F)ccc(Cl)c2F)cnc1C(F)F` [Example 136, N-(1-((2-(Azetidin-1-yl)pyrimidin-5-yl)methyl)-1H-pyrazol-4-yl)-6-(3-chloro-6-(difluoromethyl)-2-fluorophenyl)-3-(difluoromethyl)pyrazine-2-carboxamide]: the results for the 50% inhibitory concentration (IC50) at human factor XIa and on Human plasma kallikrein were 0.838 µM and 0.0086 µM, respectively.

As to `O=C(O)c1ncc(-c2c(C(F)F)ccc(Cl)c2F)nc1C(=O)Nc1cnn(Cc2cnc(N3CCC3)nc2)c1` [Example 137, 3-((1-((2-(Azetidin-1-yl)pyrimidin-5-yl)methyl)-1H-pyrazol-4-yl)carbamoyl)-5-(3-chloro-6-(difluoromethyl)-2-fluorophenyl)pyrazine-2-carboxylic acid], the IC50 on human factor XIa amounted to 4.1 µM; against Human plasma kallikrein, 0.0212 µM.

In the case of `NC(=O)c1ncc(-c2c(C(F)F)ccc(Cl)c2F)nc1C(=O)Nc1cnn(Cc2cnc(N3CCC3)nc2)c1` [Example 138, N^2-(1-((2-(Azetidin-1-yl)pyrimidin-5-yl)methyl)-1H-pyrazol-4-yl)-6-(3-chloro-6-(difluoromethyl)-2-fluorophenyl)pyrazine-2,3-dicarboxamide], the concentration for half-maximal inhibition (IC50) was 2.32 µM on human factor XIa and 0.0146 µM against Human plasma kallikrein.

As to `CC(C)(O)CNC[C@@H]1[C@@H]2C[C@@H]2CN1c1ncc(Cn2cc(NC(=O)c3cncc(-c4c(C(F)F)ccc(Cl)c4F)n3)cn2)cn1` [Example 139, 6-(3-Chloro-6-(difluoromethyl)-2-fluorophenyl)-N-(1-((2-((1R,2S,5S)-2-(((2-hydroxy-2-methylpropyl)amino)methyl)-3-azabicyclo[3.1.0]hexan-3-yl)pyrimidin-5-yl)methyl)-1H-pyrazol-4-yl)pyrazine-2-carboxamide], the IC50 on human factor XIa was 0.502 µM; on Human plasma kallikrein, 0.0003 µM.

For `O=C(Nc1cnn(Cc2cnc(N3CCC[C@H]3CN3CC[C@@H](O)C3)nc2)c1)c1cncc(-c2c(C(F)F)ccc(Cl)c2F)n1` [Example 142, 6-(3-Chloro-6-(difluoromethyl)-2-fluorophenyl)-N-(1-((2-((S)-2-(((R)-3-hydroxypyrrolidin-1-yl)methyl)pyrrolidin-1-yl)pyrimidin-5-yl)methyl)-1H-pyrazol-4-yl)pyrazine-2-carboxamide], the IC50 on human factor XIa was 2.17 µM; against Human plasma kallikrein, 0.0004 µM.

As to `C[C@H](CO)NC[C@@H]1[C@@H]2C[C@@H]2CN1c1ncc(Cn2cc(NC(=O)c3cncc(-c4c(C(F)F)ccc(Cl)c4F)n3)cn2)cn1` [Example 143, 6-(3-Chloro-6-(difluoromethyl)-2-fluorophenyl)-N-(1-((2-((1R,2S,5S)-2-((((R)-1-hydroxypropan-2-yl)amino)methyl)-3-azabicyclo[3.1.0]hexan-3-yl)pyrimidin-5-yl)methyl)-1H-pyrazol-4-yl)pyrazine-2-carboxamide], the IC50 on human factor XIa came to 0.528 µM; against Human plasma kallikrein, 0.0004 µM.

With `CC1(O)CCN(C[C@@H]2CCCN2c2ncc(Cn3cc(NC(=O)c4cncc(-c5c(C(F)F)ccc(Cl)c5F)n4)cn3)cn2)C1` (stereo partly drawn) [Example 144, 6-(3-Chloro-6-(difluoromethyl)-2-fluorophenyl)-N-(1-((2-((2S)-2-((3-hydroxy-3-methylpyrrolidin-1-yl)methyl)pyrrolidin-1-yl)pyrimidin-5-yl)methyl)-1H-pyrazol-4-yl)pyrazine-2-carboxamide], the values for the half-inhibitory concentration (IC50) at human factor XIa and on Human plasma kallikrein were 2.34 µM and 0.0004 µM, respectively.

In the case of `CC1(O)CN(C[C@@H]2[C@@H]3C[C@@H]3CN2c2ncc(Cn3cc(NC(=O)c4cncc(-c5c(C(F)F)ccc(Cl)c5F)n4)cn3)cn2)C1` [Example 145, 6-(3-Chloro-6-(difluoromethyl)-2-fluorophenyl)-N-(1-((2-((1R,2S,5S)-2-((3-hydroxy-3-methylazetidin-1-yl)methyl)-3-azabicyclo[3.1.0]hexan-3-yl)pyrimidin-5-yl)methyl)-1H-pyrazol-4-yl)pyrazine-2-carboxamide], the concentration for half-maximal inhibition (IC50) worked out at 0.366 µM at human factor XIa and 0.0005 µM at Human plasma kallikrein.

Regarding `C[C@H]1[C@@H](O)CCN1C[C@@H]1CCCN1c1ncc(Cn2cc(NC(=O)c3cncc(-c4c(C(F)F)ccc(Cl)c4F)n3)cn2)cn1` [Example 146, 6-(3-Chloro-6-(difluoromethyl)-2-fluorophenyl)-N-(1-((2-((S)-2-(((2S,3S)-3-hydroxy-2-methylpyrrolidin-1-yl)methyl)pyrrolidin-1-yl)pyrimidin-5-yl)methyl)-1H-pyrazol-4-yl)pyrazine-2-carboxamide], the values for the concentration for half-maximal inhibition (IC50) at human factor XIa and on Human plasma kallikrein were 7.22 µM and 0.0006 µM, respectively.

Turning to `C[C@H](F)CN(C)CC1CCCN1c1ncc(Cn2cc(NC(=O)c3cncc(-c4c(C(F)F)ccc(Cl)c4F)n3)cn2)cn1` (stereo partly drawn) [Example 147, 6-(3-Chloro-6-(difluoromethyl)-2-fluorophenyl)-N-(1-((2-(2-((((S)-2-fluoropropyl)(methyl)amino)methyl)pyrrolidin-1-yl)pyrimidin-5-yl)methyl)-1H-pyrazol-4-yl)pyrazine-2-carboxamide], the values for the half-maximal inhibitory concentration (IC50) at human factor XIa and against Human plasma kallikrein were 5.5 µM and 0.0006 µM, respectively.

Turning to `O=C(Nc1cnn(Cc2cnc(N3CCCC3CN3CC[C@H](F)C3)nc2)c1)c1cncc(-c2c(C(F)F)ccc(Cl)c2F)n1` (stereo partly drawn) [Example 148, 6-(3-Chloro-6-(difluoromethyl)-2-fluorophenyl)-N-(1-((2-(2-(((S)-3-fluoropyrrolidin-1-yl)methyl)pyrrolidin-1-yl)pyrimidin-5-yl)methyl)-1H-pyrazol-4-yl)pyrazine-2-carboxamide], the IC50 on human factor XIa stood at 2.93 µM; on Human plasma kallikrein, 0.0006 µM.

On to `O=C(Nc1cnn(Cc2cnc(N3C[C@H]4C[C@H]4[C@H]3CNCC(O)C(F)F)nc2)c1)c1cncc(-c2c(C(F)F)ccc(Cl)c2F)n1` (stereo partly drawn) [Example 150, 6-(3-Chloro-6-(difluoromethyl)-2-fluorophenyl)-N-(1-((2-((1R,2S,5S)-2-(((3,3-difluoro-2-hydroxypropyl)amino)methyl)-3-azabicyclo[3.1.0]hexan-3-yl)pyrimidin-5-yl)methyl)-1H-pyrazol-4-yl)pyrazine-2-carboxamide], for which the results for the 50% inhibitory concentration (IC50) on human factor XIa and at Human plasma kallikrein were 0.65 µM and 0.0006 µM, respectively.

As for `C[C@@H](F)CN(C)CC1CCCN1c1ncc(Cn2cc(NC(=O)c3cncc(-c4c(C(F)F)ccc(Cl)c4F)n3)cn2)cn1` (stereo partly drawn) [Example 151, 6-(3-Chloro-6-(difluoromethyl)-2-fluorophenyl)-N-(1-((2-(2-((((R)-2-fluoropropyl)(methyl)amino)methyl)pyrrolidin-1-yl)pyrimidin-5-yl)methyl)-1H-pyrazol-4-yl)pyrazine-2-carboxamide], the 50% inhibitory concentration (IC50) on human factor XIa is 7.72 µM; against Human plasma kallikrein it was 0.001 µM.

On to `CC1(O)CN(C[C@@H]2CCCN2c2ncc(Cn3cc(NC(=O)c4cncc(-c5c(C(F)F)ccc(Cl)c5F)n4)cn3)cn2)C1` [Example 152, (S)-6-(3-Chloro-6-(difluoromethyl)-2-fluorophenyl)-N-(1-((2-(2-((3-hydroxy-3-methylazetidin-1-yl)methyl)pyrrolidin-1-yl)pyrimidin-5-yl)methyl)-1H-pyrazol-4-yl)pyrazine-2-carboxamide], for which the figures for the half-maximal inhibitory concentration (IC50) on human factor XIa and against Human plasma kallikrein were 6.02 µM and 0.001 µM, respectively.

Turning to `C[C@@H](O)CNCC1CCCN1c1ncc(Cn2cc(NC(=O)c3cncc(-c4c(C(F)F)ccc(Cl)c4F)n3)cn2)cn1` (stereo partly drawn) [Example 154, 6-(3-Chloro-6-(difluoromethyl)-2-fluorophenyl)-N-(1-((2-(2-((((R)-2-hydroxypropyl)amino)methyl)pyrrolidin-1-yl)pyrimidin-5-yl)methyl)-1H-pyrazol-4-yl)pyrazine-2-carboxamide], the half-maximal inhibitory concentration (IC50) at human factor XIa amounted to 4.13 µM; at Human plasma kallikrein, 0.0012 µM.

In the case of `O=C(Nc1cnn(Cc2cnc(N3C[C@H]4C[C@H]4[C@H]3CN3CC(O)(C(F)(F)F)C3)nc2)c1)c1cncc(-c2c(C(F)F)ccc(Cl)c2F)n1` [Example 155, 6-(3-Chloro-6-(difluoromethyl)-2-fluorophenyl)-N-(1-((2-((1R,2S,5S)-2-((3-hydroxy-3-(trifluoromethyl)azetidin-1-yl)methyl)-3-azabicyclo[3.1.0]hexan-3-yl)pyrimidin-5-yl)methyl)-1H-pyrazol-4-yl)pyrazine-2-carboxamide], the IC50 came out at 3.68 µM at human factor XIa and 0.0018 µM on Human plasma kallikrein.

As to `CC(c1cnc(N2CC[C@H]2CN2CC[C@H](O)[C@@H]2C)nc1)n1cc(NC(=O)c2cncc(-c3c(C(F)F)ccc(Cl)c3F)n2)cn1` (stereo partly drawn) [Example 161, 6-(3-Chloro-6-(difluoromethyl)-2-fluorophenyl)-N-(1-(1-(2-((S)-2-(((2S,3S)-3-hydroxy-2-methylpyrrolidin-1-yl)methyl)azetidin-1-yl)pyrimidin-5-yl)ethyl)-1H-pyrazol-4-yl)pyrazine-2-carboxamide], the half-inhibitory concentration (IC50) at human factor XIa turned out to be 9.63 µM; against Human plasma kallikrein it was 0.002 µM.

Turning to `CC(c1cnc(N2CC[C@H]2CN2CC[C@H](O)C2)nc1)n1cc(NC(=O)c2cncc(-c3c(C(F)F)ccc(Cl)c3F)n2)cn1` (stereo partly drawn) [Example 162, 6-(3-Chloro-6-(difluoromethyl)-2-fluorophenyl)-N-(1-(1-(2-((S)-2-(((S)-3-hydroxypyrrolidin-1-yl)methyl)azetidin-1-yl)pyrimidin-5-yl)ethyl)-1H-pyrazol-4-yl)pyrazine-2-carboxamide], the values for the half-maximal inhibitory concentration (IC50) on human factor XIa and on Human plasma kallikrein were 5.19 µM and 0.001 µM, respectively.

As to `CC(c1cnc(N2CC[C@H]2CN2CC[C@@H](O)C2)nc1)n1cc(NC(=O)c2cncc(-c3c(C(F)F)ccc(Cl)c3F)n2)cn1` (stereo partly drawn) [Example 163, 6-(3-Chloro-6-(difluoromethyl)-2-fluorophenyl)-N-(1-(1-(2-((S)-2-(((R)-3-hydroxypyrrolidin-1-yl)methyl)azetidin-1-yl)pyrimidin-5-yl)ethyl)-1H-pyrazol-4-yl)pyrazine-2-carboxamide], the 50% inhibitory concentration (IC50) stood at 4.85 µM on human factor XIa and 0.0012 µM on Human plasma kallikrein.
